In ChEMBL document CHEMBL5154820 (Eur J Med Chem, 2022):

Assays:
HeLa [1] = assay: Induction of apoptosis in human HeLa cells assessed as viable cells at 6 nM measured after 24 hrs by Annexin V-FITC/7-AAD staining based flow cytometric analysis (reference value: 75.5%); type: functional; conditions: read-out: Activity
HeLa [2] = assay: Induction of cell cycle arrest in human HeLa cells assessed as 2N cells at 3 nM measured after 24 hrs by propidium iodide staining based flow cytometric analysis analysis ( Rvb = 41.7%); type: functional
HeLa [3] = assay: Induction of cell cycle arrest in human HeLa cells assessed as < 2N cells at 1.5 nM measured after 24 hrs by propidium iodide staining based flow cytometric analysis analysis ( Rvb = 9.32%); type: functional
HeLa [4] = assay: Induction of cell cycle arrest in human HeLa cells assessed as accumulation of cells at G2/M phase at 3 nM after 24 hrs by propidium iodide staining based flow cytometric analysis (reference value: 17.1%); type: functional
HeLa [5] = assay: Induction of cell cycle arrest in human HeLa cells assessed as S-phase at 3 nM measured after 24 hrs by propidium iodide staining based flow cytometric analysis analysis ( Rvb = 23.4%); type: functional
HeLa [6] = assay: Induction of cell cycle arrest in human HeLa cells assessed as < 2N cells at 3 nM measured after 24 hrs by propidium iodide staining based flow cytometric analysis analysis ( Rvb = 9.32%); type: functional
HeLa [7] = assay: Induction of cell cycle arrest in human HeLa cells assessed as 2N cells at 1.5 nM measured after 24 hrs by propidium iodide staining based flow cytometric analysis analysis ( Rvb = 41.7%); type: functional
HeLa [8] = assay: Antitumour activity against human HeLa cells xenografted in BABL/c mouse assessed as reduction in tumor weight at 60 mg/kg, ip administered daily for 21 days ( Rvb = 3.36 g); type: functional; conditions: time 21 day
[9] = Acute toxicity against ICR mouse assessed as inflammatory cell infiltration in liver at 1000 mg/kg, ip measured after 14 days by H and E staining method; type: organism-based; conditions: in vivo, 336 h, time 14 day
[10] = Acute toxicity in ICR male mouse assessed as body weight gain at 100 to 1000 mg/kg, ip measured daily for 14 days; type: organism-based; conditions: in vivo, 336 h, dose 100-1000 mg/kg, time 14 day
[11] = biological target: T1, Tubulin beta (Homo sapiens) (UniProt P68371+Q9H4B7+Q13509+P04350+Q3ZCM7+P07437+Q13885+Q9BVA1+Q9BUF5+A6NNZ2); assay: Binding affinity to beta-tubulin colchicine binding site in human HeLa cells assessed as inhibition of EBI-beta-tubulin adduct formation measured at 1 to 100 uM incubated for 2 hrs followed by addition of EBI measured after 1.5 hrs by EBI competition based Western blotting analysis; type: cell-based; conditions: dose 1-100 µM, time 3.5 hrs, DDE = dose-dependent effect
Tubulin (Sus scrofa) = Tubulin (Sus scrofa) (UniProt P02554+P02550); assay: Inhibition of pig brain tubulin polymerization at 3 uM by spectrophotometer analysis relative to control; parameters: scale not given: the % may be the effect or the level left; conditions: Sus scrofa domesticus
Sequence of Tubulin (Sus scrofa) (P02550 whole entry, looked up): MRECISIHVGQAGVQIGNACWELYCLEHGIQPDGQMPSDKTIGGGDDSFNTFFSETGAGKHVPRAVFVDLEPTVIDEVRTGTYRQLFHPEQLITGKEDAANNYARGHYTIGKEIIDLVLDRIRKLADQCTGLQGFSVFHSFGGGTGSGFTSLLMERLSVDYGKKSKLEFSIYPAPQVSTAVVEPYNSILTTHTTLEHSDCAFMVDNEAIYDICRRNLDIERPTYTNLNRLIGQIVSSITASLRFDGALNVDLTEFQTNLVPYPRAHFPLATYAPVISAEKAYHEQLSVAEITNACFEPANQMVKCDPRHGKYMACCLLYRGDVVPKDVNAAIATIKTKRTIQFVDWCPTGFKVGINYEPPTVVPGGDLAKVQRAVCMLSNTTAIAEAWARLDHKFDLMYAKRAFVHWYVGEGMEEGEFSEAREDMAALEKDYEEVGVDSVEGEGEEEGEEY
Sequence of Tubulin (Sus scrofa) (P02554 whole entry, looked up): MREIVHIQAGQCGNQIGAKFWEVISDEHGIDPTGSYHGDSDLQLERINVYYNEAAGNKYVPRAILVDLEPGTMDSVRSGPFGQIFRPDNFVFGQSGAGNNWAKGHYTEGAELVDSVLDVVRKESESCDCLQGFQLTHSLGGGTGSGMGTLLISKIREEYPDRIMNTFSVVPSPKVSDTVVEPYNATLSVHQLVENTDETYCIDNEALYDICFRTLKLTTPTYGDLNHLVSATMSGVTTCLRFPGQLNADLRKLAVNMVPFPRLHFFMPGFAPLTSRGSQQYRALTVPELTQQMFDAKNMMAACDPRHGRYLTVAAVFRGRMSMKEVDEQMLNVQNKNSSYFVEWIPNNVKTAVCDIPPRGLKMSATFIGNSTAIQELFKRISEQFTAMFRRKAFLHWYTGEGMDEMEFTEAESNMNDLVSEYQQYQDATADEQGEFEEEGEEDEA

[12] = Retention time of the compound; type: physicochemical
[13] = Acute toxicity against ICR mouse assessed as regeneration of renal tubule in kidney at 1000 mg/kg, ip measured after 14 days by H and E staining method; type: organism-based; conditions: in vivo, 336 h, time 14 day
HeLa [14] = assay: Antimigratory activity against human HeLa cells at 0.2 uM measured after 24 hrs by scratch wound healing based fluorescence inverted microscopic analysis; type: functional
[15] = Resistant factor, ratio of IC50 for antiproliferative activity against human SiHa/DDP cells to IC50 for human SiHa cells; type: functional
[16] = Nephrotoxicity in BABL/c mouse assessed as increased urea nitrogen level at 30 mg/kg, ip administered daily for 21 days followed by addition of 3 mg/kg DDP for every 2 days relative to vehicle; type: toxicity, organism-based; conditions: in vivo, 504 h, time 21 day
HeLa [17] = assay: Antitumor activity against human HeLa cells xenografted in BABL/c mouse assessed as tumor growth inhibition at 30 mg/kg, ip administered daily for 21 days relative to control; type: functional; conditions: 504 h, time 21 day, read-out: TGI
[18] = MRT in C57 nude mouse at 30 mg/kg, ip measured at 0.083 to 24 hrs by LC/MS/MS analysis; type: ADME, organism-based; conditions: in vivo, time 0.083-24 hrs
[19] = biological target: T1, Tubulin beta (Homo sapiens); assay: Binding affinity to beta-tubulin colchicine binding site in human HeLa cells assessed as decrease of adduct formation by measuring gray value measured at 5 uM incubated for 2 hrs followed by addition of EBI measured after 1.5 hrs by EBI competition based Western blotting analysis; type: cell-based; conditions: time 3.5 hrs
HeLa [20] = assay: Induction of cell cycle arrest in human HeLa cells assessed as >4N cells at 0.2 uM measured after 24 hrs by propidium iodide staining based flow cytometric analysis analysis ( Rvb = 8.84%); type: functional
Tubulin (Homo sapiens) = Tubulin (Homo sapiens) (UniProt P68371+Q9H4B7+P0DPH7+P68366+Q13509+Q71U36+P04350+Q3ZCM7+P07437+P68363+Q9BQE3+Q6PEY2+Q13885+Q9BVA1+Q9BUF5); assay: Induction of microtubule disruption in human HeLa cells assessed as loss of formation of cell membrane rounding at 0.1 to 0.2 uM measured after 24 hrs by DAPI staining based laser scanning confocal microscopic analysis; conditions: dose 0.1-0.2 µM, DDE = dose-dependent effect
HeLa [21] = assay: Antitumour activity against human HeLa cells xenografted in BABL/c mouse assessed as reduction in tumor weight at 30 mg/kg, ip administered daily for 21 days followed by addition of 3 mg/kg DDP for every 2 days ( Rvb = 3.36 g); type: functional; conditions: time 21 day, 504 h
[22] = Toxicity against BABL/c mouse assessed as morphological changes in heart at 30 mg/kg, ip administered daily for 21 days followed by addition of 3 mg/kg DDP for every 2 days by H and E staining method; type: organism-based; conditions: in vivo, 504 h, time 21 day
[23] = Toxicity against BABL/c mouse assessed as morphological changes in lung at 30 mg/kg, ip administered daily for 21 days followed by addition of 3 mg/kg DDP for every 2 days by H and E staining method; type: organism-based; conditions: in vivo, 504 h, time 21 day
[24] = Toxicity against BABL/c mouse assessed as morphological changes in spleen at 30 to 60 mg/kg, ip administered daily for 21 days by H and E staining method; type: organism-based; conditions: in vivo, 504 h, dose 30-60 mg/kg, time 21 day
HeLa [25] = assay: Induction of apoptosis in human HeLa cells assessed as viable cells at 0.2 uM measured after 24 hrs by Annexin V-FITC/7-AAD staining based flow cytometric analysis (reference value: 70.1%); type: functional; conditions: read-out: Activity
[26] = Toxicity against BABL/c mouse assessed as morphological changes in kidney at 30 mg/kg, ip administered daily for 21 days followed by addition of 3 mg/kg DDP for every 2 days by H and E staining method; type: organism-based; conditions: in vivo, 504 h, time 21 day
HeLa [27] = assay: Induction of apoptosis in human HeLa cells assessed as necrotic cells at 0.1 uM measured after 24 hrs by Annexin V-FITC/7-AAD staining based flow cytometric analysis (reference value: 0.56%); type: functional
[28] = Tmax in C57 nude mouse at 30 mg/kg, ip measured at 0.083 to 24 hrs by LC/MS/MS analysis; type: ADME, organism-based; conditions: in vivo, time 0.083-24 hrs

COc1ccc(/C=C\c2cc(OC)c(OC)c(OC)c2)cc1O [COMBRETASTATIN A4]
viability at 0.006 µM (HeLa [1]): 19.2% | Activity (HeLa [2]): 24.9% | Activity (HeLa [3]): 4.37% | Activity (HeLa [4]): 28.2% | Activity (HeLa [5]): 12.1% | Activity (HeLa [6]): 7.77% | Activity (HeLa [7]): 43.1%

CCOc1ccc(-c2cncnc2-c2cc(OC)c(OC)c(OC)c2)cc1Cl
Activity (HeLa [8]): 1.42 g | Activity [9]: Non-Toxic | Activity [10]: 8.1 g | Activity [11]: Dde | Activity (Tubulin (Sus scrofa)): 39% | Retention_time [12]: 2.06 min | Activity [13]: Non-Toxic | Activity (HeLa [14]): 40% | Ratio IC50 [15]: 41.9 | Activity [16]: 1.3% | inhibition in vivo at 30 mg/kg (HeLa [17]): 35% | MRT [18]: 1.77 h | Activity [19]: 0.59 | Activity (HeLa [20]): 17.4% | Activity (Tubulin (Homo sapiens)): Dde | Activity (HeLa [21]): 2.18 g | Activity [22]: Non-Toxic | Activity [23]: Non-Toxic | Activity [24]: Non-Toxic | viability at 0.2 µM (HeLa [25]): 26.4% | Activity [26]: Non-Toxic | Activity (HeLa [27]): 0.5% | Tmax [28]: 0.25 h
